Test results published in paper PMC11091072, “Targeting bacterial nickel transport with aspergillomarasmine A suppresses virulence-associated Ni-dependent enzymes” (Nature Communications, 2024).
Values joined by “and” are separate entries in the source; they are usually repeats but may differ in a detail not shown here. Identical values can stand only once. Like-named read-outs stand apart in the source and are kept apart here.

Columns and labels:
HEK293 cells = test: HEK293 cytotoxicity assay (Cell Titer Glo 2.0)
S. aureus = format: cell-based, Staphylococcus aureus; conditions: 200 μM, 24 h
NikA [1] = format: binding, Klebsiella pneumoniae; conditions: 100 μM
K. pneumoniae [2] = format: cell-based, Klebsiella pneumoniae; conditions: 200 μM, 24 h exposure
[3] = tested on: S. aureus urease activity (whole cell); format: cell-based, Staphylococcus aureus; conditions: S. aureus, artificial urine, 24 h
NikA [4] = molecular target: NikA (Klebsiella pneumoniae, UniProt A6TFA3); format: binding
K. pneumoniae [5] = format: cell-based, Klebsiella pneumoniae; conditions: for Growth curve (culture density): 50 μM; for growth with urea as sole nitrogen source: Chelex-treated nitrogen-limited medium
[6] = pH 7.5, 2:1 complex, cited from earlier work
[7] = tested on: K. pneumoniae urease activity (Ni2+ uptake); test: Competition of Zn-AMA with Ni-(L-His)2 (urease-dependent pH); format: cell-based, Klebsiella pneumoniae; conditions: Zn-AMA 0 μM
[8] = tested on: K. pneumoniae urease activity (whole cell); test: microbe, parasite or virus in culture; format: cell-based, Klebsiella pneumoniae ATCC 33495; conditions: artificial urine, 24 h; for K. pneumoniae urease-dependent pH change (pH): 37 °C
urease = molecular target: T1, urease (Klebsiella pneumoniae subsp. pneumoniae, UniProt A6TE40+A6TE41+A6TE42); test: Urease activity in cell-free extracts (NH3 release, indophenol-hypochlorite); format: biochemical
T1 construct: endogenous in cells; host or cells: Klebsiella pneumoniae (ATCC 33495), sonicated and cleared lysate
Experimental: The cells were subsequently lysed by sonication, and cell debris was removed with centrifugation (20,000 × g, 10 min). […] Liberated NH3 was quantified using the indophenol-hypocholorite reaction as previously described. The total amount of protein was quantified by Bradford assay using bovine serum albumin as standard. Each assay was performed in duplicate wells.
FIG S7 Evaluation of Zn-AMA as a direct inhibitor of urease. A) Checkerboard analysis of Zn-AMA and AHA on urease activity of K. […]
Dose- […]
response curves of fluorofamide, Zn-AMA, and AMA inhibiting the urease-catalyzed release of NH3 quantified with indophenol hypochlorite. The rates of NH3 production were measured over 20 min and were normalized to total protein concentration. Experiments were performed in duplicate. Individual replicates are shown as colored circles.

Chain of NikA (Klebsiella pneumoniae, UniProt A6TFA3) (A6TFA3 entry or part of it): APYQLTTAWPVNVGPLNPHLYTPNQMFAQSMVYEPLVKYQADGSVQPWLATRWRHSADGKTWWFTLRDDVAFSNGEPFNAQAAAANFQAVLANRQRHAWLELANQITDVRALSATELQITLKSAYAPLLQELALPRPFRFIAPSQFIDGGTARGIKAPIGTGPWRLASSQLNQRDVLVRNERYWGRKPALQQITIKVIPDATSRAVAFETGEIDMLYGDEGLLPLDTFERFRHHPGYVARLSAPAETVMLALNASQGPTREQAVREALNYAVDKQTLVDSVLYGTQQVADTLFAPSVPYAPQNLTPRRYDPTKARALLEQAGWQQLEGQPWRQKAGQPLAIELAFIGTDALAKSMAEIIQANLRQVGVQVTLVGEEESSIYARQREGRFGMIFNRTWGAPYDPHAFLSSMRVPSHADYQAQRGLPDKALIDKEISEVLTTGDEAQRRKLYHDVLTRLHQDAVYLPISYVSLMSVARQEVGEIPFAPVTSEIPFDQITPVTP
T1 sequence (A6TE41 whole entry): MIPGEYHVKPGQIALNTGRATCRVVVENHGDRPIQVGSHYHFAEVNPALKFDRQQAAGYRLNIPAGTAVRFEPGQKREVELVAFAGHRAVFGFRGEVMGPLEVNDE
T1 sequence (A6TE40 whole entry): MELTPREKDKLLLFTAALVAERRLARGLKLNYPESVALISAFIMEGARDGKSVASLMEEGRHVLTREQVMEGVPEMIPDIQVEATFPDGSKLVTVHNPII
T1 sequence (A6TE42 whole entry): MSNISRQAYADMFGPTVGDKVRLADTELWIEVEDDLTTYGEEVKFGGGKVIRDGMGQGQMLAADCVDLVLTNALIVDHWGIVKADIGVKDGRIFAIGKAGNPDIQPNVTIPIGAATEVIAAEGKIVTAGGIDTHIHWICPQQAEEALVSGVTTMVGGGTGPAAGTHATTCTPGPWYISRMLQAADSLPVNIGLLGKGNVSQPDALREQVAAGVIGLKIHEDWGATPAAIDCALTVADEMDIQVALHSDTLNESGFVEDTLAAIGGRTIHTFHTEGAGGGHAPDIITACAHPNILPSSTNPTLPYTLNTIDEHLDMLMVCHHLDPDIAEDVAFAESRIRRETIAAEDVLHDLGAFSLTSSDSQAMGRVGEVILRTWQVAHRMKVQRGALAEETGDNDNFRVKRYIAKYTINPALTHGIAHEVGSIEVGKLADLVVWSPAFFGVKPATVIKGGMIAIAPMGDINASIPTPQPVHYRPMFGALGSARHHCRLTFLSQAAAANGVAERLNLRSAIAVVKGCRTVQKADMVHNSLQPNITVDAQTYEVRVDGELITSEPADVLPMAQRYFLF

Q: What does the source list for `N[C@@H](CN[C@@H](CN[C@@H](CC(=O)O)C(=O)O)C(=O)O)C(=O)O.[Co+2]` [Co-AMA]?
A: HEK 293T cytotoxicity assay raw signal (HEK293 cells; Co-AMA 0.5 μg/mL): 622984 and 609603 and 578025; HEK 293T cytotoxicity assay raw signal (HEK293 cells; Co-AMA 1 μg/mL): 648007 and 588509 and 584554; HEK 293T cytotoxicity assay raw signal (HEK293 cells; Co-AMA 2 μg/mL): 653814 and 579149 and 584837; HEK 293T cytotoxicity assay raw signal (HEK293 cells; Co-AMA 4 μg/mL): 624260 and 594763 and 611086; HEK 293T cytotoxicity assay raw signal (HEK293 cells; Co-AMA 8 μg/mL): 684397 and 665902 and 598886; HEK 293T cytotoxicity assay raw signal (HEK293 cells; Co-AMA 16 μg/mL): 641409 and 612229 and 581248; HEK 293T cytotoxicity assay raw signal (HEK293 cells; Co-AMA 32 μg/mL): 567905 and 544667 and 548517; HEK 293T cytotoxicity assay raw signal (HEK293 cells; Co-AMA 64 μg/mL): 578062 and 599992 and 521662; HEK 293T cytotoxicity assay raw signal (HEK293 cells; Co-AMA 128 μg/mL): 421336 and 474275 and 462640; HEK 293T cytotoxicity assay raw signal (HEK293 cells; Co-AMA 256 μg/mL): 411884 and 395016 and 434679; HEK 293T cytotoxicity assay raw signal (HEK293 cells; Co-AMA 512 μg/mL): 266726 and 265058 and 263860; reduction in HEK293 cell viability (HEK293 cells; highest test concentration 512 μg/mL, 48 h): 50%; bacterial viability (spot dilutions) (S. aureus): not lethal to bacteria; effect on stability of recombinant NikA (NikA [1]): increase NikA’s stability; bacterial viability (spot dilutions) (K. pneumoniae [2]): do not affect bacterial viability; effect on urease activity [3]: inhibited urease activity similarly; n (stoichiometry, ITC) (NikA [4]; 37 °C, pH 7.5): 1.06; ∆G (NikA [4]; 37 °C, pH 7.5): -6.9 kcal/mol; ∆H (NikA [4]; 37 °C, pH 7.5): -10.5 kcal/mol; −T∆S (NikA [4]; 37 °C, pH 7.5): 3.6 kcal/mol; Kd (NikA [4]; read-out: KD for NikA (ITC), 25 mM Tris-HCl, 150 mM NaCl, 0.1% Triton X-100, pH 7.5, 37 °C): 13 ± 0.4 µM

Q: Which “effect on stability of recombinant NikA” value (NikA [1]) does the source give for `[Cl-].[Cl-].[Co+2]` [Co^2+, CoCl2] here?
A: did not affect it

Q: Which results are given for `CC(=NO)C(C)=NO` [DMG, dimethylglyoxime, reference compound]?
A: Growth curve (culture density) (K. pneumoniae [5]; 15.15 h): 0.125 and 0.12; Growth curve (culture density) (K. pneumoniae [5]; 16.15 h): 0.131 and 0.126; Growth curve (culture density) (K. pneumoniae [5]; 17.15 h): 0.14 and 0.136; growth with urea as sole nitrogen source (K. pneumoniae [5]): did not

Q: With `N[C@@H](Cc1c[nH]cn1)C(=O)O` [L-His, L-histidine, reference compound] as the molecule, how does the Kd ([6]; read-out: KD1 for Ni^2+) read?
A: 0.64 µM

Q: And the Kd ([6]; read-out: KD2 for Ni^2+)?
A: 8.8 µM

Q: What about the “pH of culture (Zn-AMA v.s. L-His)” value ([7]; L-His 3.12 μM) of the same molecule?
A: 8.06 and 8.1

Q: And the “pH of culture (Zn-AMA v.s. L-His)” value ([7]; L-His 6.25 μM)?
A: 8.07 and 8.1

Q: What about the “pH of culture (Zn-AMA v.s. L-His)” value ([7]; L-His 12.5 μM) of the same molecule?
A: 7.85 and 7.9

Q: And the “growth with urea as sole nitrogen source” value (K. pneumoniae [5])?
A: not viable

Q: With `[Cl][Ni][Cl]` [Ni^2+, NiCl2] as the molecule, how does the “effect on stability of recombinant NikA” value (NikA [1]) read?
A: did not affect it

Q: Which “effect on stability of recombinant NikA” value (NikA [1]) does the source give for `[Cl-].[Cl-].[Zn+2]` [ZnCl2, reference compound] here?
A: stabilized NikA

Q: And the “effect on urease activity” value [3]?
A: did not affect urease activity

Q: What about the “K. pneumoniae urease-dependent pH change (pH)” value ([8]; 0.39 μM) of the same molecule?
A: 8.18 and 8.29

Q: And the “K. pneumoniae urease-dependent pH change (pH)” value ([8]; 0.78 μM)?
A: 8.27 and 8.39

Q: And the “K. pneumoniae urease-dependent pH change (pH)” value ([8]; 1.56 μM)?
A: 8.17 and 8.34

Q: And the “K. pneumoniae urease-dependent pH change (pH)” value ([8]; 3.12 μM)?
A: 8.20 and 8.42

Q: And the “K. pneumoniae urease-dependent pH change (pH)” value ([8]; 6.25 μM)?
A: 8.19 and 8.30

Q: What about the “K. pneumoniae urease-dependent pH change (pH)” value ([8]; 12.5 μM) of the same molecule?
A: 8.23 and 8.21

Q: What about the “K. pneumoniae urease-dependent pH change (pH)” value ([8]; 25 μM) of the same molecule?
A: 8.25 and 8.11

Q: What about the “K. pneumoniae urease-dependent pH change (pH)” value ([8]; 50 μM) of the same molecule?
A: 8.14 and 8.06

Q: What about the “K. pneumoniae urease-dependent pH change (pH)” value ([8]; 100 μM) of the same molecule?
A: 8.06 and 8.01

Q: What about the “K. pneumoniae urease-dependent pH change (pH)” value ([8]; 200 μM) of the same molecule?
A: 7.51 and 7.49

Q: And the “effect on urease activity” value ([8]; K. pneumoniae)?
A: did not affect urease activity

Q: Which results are given for `NP(N)(=O)NC(=O)c1ccc(F)cc1` [fluorfamide, reference compound]?
A: Specific activity (cell-free indophenol urease assay) (urease; Fluorofamide 0.000122 mM): 36.97 nmol/min/mg and 30.98 nmol/min/mg; Specific activity (cell-free indophenol urease assay) (urease; Fluorofamide 0.000244 mM): 36.32 nmol/min/mg and 35.04 nmol/min/mg; Specific activity (cell-free indophenol urease assay) (urease; Fluorofamide 0.000488 mM): 34.40 nmol/min/mg and 35.26 nmol/min/mg; Specific activity (cell-free indophenol urease assay) (urease; Fluorofamide 0.000977 mM): 30.98 nmol/min/mg and 33.12 nmol/min/mg; Specific activity (cell-free indophenol urease assay) (urease; Fluorofamide 0.001953 mM): 25.00 nmol/min/mg and 23.72 nmol/min/mg; Specific activity (cell-free indophenol urease assay) (urease; Fluorofamide 0.003906 mM): 16.88 nmol/min/mg; Specific activity (cell-free indophenol urease assay) (urease; Fluorofamide 0.007813 mM): 7.48 nmol/min/mg and 7.26 nmol/min/mg; Specific activity (cell-free indophenol urease assay) (urease; Fluorofamide 0.015625 mM): 2.56 nmol/min/mg and 2.35 nmol/min/mg; Specific activity (cell-free indophenol urease assay) (urease; Fluorofamide 0.03125 mM): 0.85 nmol/min/mg and 0.64 nmol/min/mg; Specific activity (cell-free indophenol urease assay) (urease; Fluorofamide 0.0625 mM): 0.21 nmol/min/mg
